# According to patent US20060160790A1, “Thioureas as factor Xa inhibitors” (Portola Pharmaceuticals, Inc., priority 2004, published 2006):
# Molecular target: T1, human plasma protein factor Xa (Homo sapiens, UniProt P00742)
# T1 construct: measure proteolytic activity of the enzyme (factor Xa) by following cleavage of paranitroanilide substrate; purchased Haematologic Technologies (Essex Junction, Vt.); host or cells: human plasma
# Test: Factor Xa IC50 determination (cleavage of paranitroanilide substrate S-2765)
# Assay type: biochemical
# Settings: fXa 1 nM, S2765 100 μM, Tris buffered saline pH 7.4, room temperature
# Experimental: An in vitro assay for detecting and measuring inhibition activity against Factor Xa is as follows:
# The substrate S-2765 (Z-D-Arg-Gly-Arg-pNA.HCl) was obtained from Diapharma (West Chester, Ohio).
# The human plasma protein factor Xa was purchased from Haematologic Technologies (Essex Junction, Vt.).
# All assays, which are performed in 96-well microtiter plates, measure proteolytic activity of the enzyme (factor Xa) by following cleavage of paranitroanilide substrate. The assay buffer used for proteolytic assays was Tris buffered saline (20 mM Tris, 150 mM NaCl, 5 mM CaCl2, 0.1% Bovine serum albumin (BSA), 5% Dimethly Sulfoxide (DMSO) pH 7.4). In a 96-well microtiter plate, inhibitor was serially diluted to give a range of concentrations from 0.01 nM to 10 μM (final). Duplicate sets of wells were assayed and control wells without inhibitor were included. Enzyme was added to each well, (fXa concentration=1 nM), the plate was shaken for 5 seconds and then incubated for 5 minutes at room temperature. S2765 was added (100 μM final) and the plate was shaken for 5 seconds (final liquid volume in each well was 200 μl). The degree of substrate hydrolysis was measured at 405 nm on a Thermomax plate reader (Molecular Devices, Sunnyvale, Calif.) for 2 minutes. The initial velocities (mOD/min), for each range of inhibitor concentrations, were fitted to a four parameter equation using Softmax data analysis software. The parameter C, derived from the resulting curve-fit, corresponded to the concentration for half maximal inhibition (IC50).
# T1 sequence (P00742 235-488 limits assumed): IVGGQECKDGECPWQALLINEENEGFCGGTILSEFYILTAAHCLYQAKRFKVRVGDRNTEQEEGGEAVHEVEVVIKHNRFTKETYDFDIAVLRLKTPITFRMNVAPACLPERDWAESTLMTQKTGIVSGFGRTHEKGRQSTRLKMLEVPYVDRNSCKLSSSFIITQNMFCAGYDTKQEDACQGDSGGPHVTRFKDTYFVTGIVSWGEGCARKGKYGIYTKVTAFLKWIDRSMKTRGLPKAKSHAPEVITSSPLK
# T1 sequence (P00742 41-179 partner limits assumed): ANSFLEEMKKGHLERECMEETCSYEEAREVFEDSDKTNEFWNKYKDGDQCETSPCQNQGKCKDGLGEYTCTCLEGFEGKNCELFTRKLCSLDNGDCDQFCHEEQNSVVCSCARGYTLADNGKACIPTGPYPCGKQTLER
row,SMILES,IC50
1,"NS(=O)(=O)c1ccccc1-c1ccc(NC(=O)C(NC(=S)Nc2ccc(Cl)cc2)c2ccccc2)cc1 (stereo in doubt) [Example 32, (S) N-[4-(2-aminosulfonylphenyl)phenyl]-2-phenyl-2-(4-chlorophenylaminothiocarbonylamino)-acetamide]",100 to 500 nM
2,"NS(=O)(=O)c1ccccc1-c1ccc(NC(=O)C(NC(=S)Nc2ccc(Cl)cc2)c2ccccc2)cc1 (stereo in doubt) [Example 33, (R) N-[4-(2-aminosulfonylphenyl)phenyl]-2-phenyl-2-(4-chlorophenylaminothiocarbonylamino)-acetamide]",≤ 100 nM
3,"Cc1cc2cc(NC(=S)NCC(=O)Nc3ccc(C(=N)N(C)C)cc3)ccc2o1 [Example 1, N-[4-(dimethylaminoimino)phenyl]-2-[(2-methylbenzo[b]furan-5-yl)aminothiocarbonylamino]-acetamide]",≥ 500 nM
4,"Cc1cc2cc(NC(=S)NCC(=O)Nc3ccc(C4=NCCN4C)cc3)ccc2o1 [Example 2, N-[4-(1-methyl-4,5-dihydro-1H-imidazol-2-yl)phenyl]-2-[(2-methylbenzo[b)furan-5-yl)aminothiocarbonylamino]-acetamide]",≥ 500 nM
5,Cc1cc2cc(NC(=S)N[C@@H](CC(C)C)C(=O)Nc3ccc(C(=N)N(C)C)cc3)ccc2o1 [Example 3],≥ 500 nM
6,"CN(C)C(=N)c1ccc(NC(=O)C(NC(=S)Nc2ccc(Br)cc2)c2ccccc2)cc1 (stereo not drawn) [Example 4, N-[4-(dimethylaminoimino)phenyl]-2-phenyl-2-(4-bromophenylaminothiocarbonylamino)-acetamide]",≤ 100 nM
7,N=C(c1ccc(NC(=O)C(NC(=S)Nc2ccc(Br)cc2)c2ccccc2)cc1)N1CCCC1 (stereo not drawn) [Example 5],≤ 100 nM
8,N=C(c1ccc(NC(=O)C(NC(=S)Nc2ccc(Br)cc2)c2ccccc2)cc1)N1CCC1 (stereo not drawn) [Example 6],≤ 100 nM
9,"COCCN(C)C(=N)c1ccc(NC(=O)C(NC(=S)Nc2ccc(Br)cc2)c2ccccc2)cc1 (stereo not drawn) [Example 7, N-{4-[(N-methyl-N-2-methoxyethyl)aminoimino]phenyl}-2-phenyl-2-(4-bromophenylaminothiocarbonylamino)-acetamide]",≤ 100 nM
10,CCOC(=O)C1CCN(C(=N)c2ccc(NC(=O)C(NC(=S)Nc3ccc(Br)cc3)c3ccccc3)cc2)CC1 (stereo not drawn) [Example 8],≥ 500 nM
11,"CN1CCN=C1c1ccc(NC(=O)C(NC(=S)Nc2ccc(Br)cc2)c2ccccc2)cc1 (stereo not drawn) [Example 9, N-[4-(1-methyl-4,5-dihydro-1H-imidazol-2-yl)phenyl]-2-phenyl-2-(4-bromophenylaminothiocarbonylamino)-acetamide]",≤ 100 nM
12,N=C(c1ccc(NC(=O)C(NC(=S)Nc2ccc(F)cc2)c2ccccc2)cc1)N1CCCC1 (stereo not drawn) [Example 10],≤ 100 nM
13,C#Cc1ccc(NC(=S)NC(C(=O)Nc2ccc(C(=N)N3CCCC3)cc2)c2ccccc2)cc1 (stereo not drawn) [Example 11],≤ 100 nM
14,"N=C(c1ccc(NC(=O)[C@@H](NC(=S)Nc2ccc(Br)cc2)c2ccccc2)cc1)N1CCCC1 [Example 13, (S) N-[4-(pyrrolidinylimino)phenyl]-2-phenyl-2-(4-bromophenylaminothiocarbonylamino)-acetamide]",≤ 100 nM
15,"N=C(c1ccc(NC(=O)[C@@H](NC(=S)Nc2ccc(Br)cc2)c2ccccc2)cc1)N1CCCCC1 [Example 14, (S) N-[4-(piperidinylimino)phenyl]-2-phenyl-2-(4-bromophenylaminothiocarbonylamino)-acetamide]",100 to 500 nM
16,N=C(c1ccc(NC(=O)[C@@H](NC(=S)Nc2ccc(Br)cc2)c2ccccc2)cc1)N1CCCCCC1 [Example 15],≤ 100 nM
17,N=C(c1ccc(NC(=O)[C@@H](NC(=S)Nc2ccc(Cl)cc2)c2ccccc2)cc1)N1CCCC1 [Example 16],≤ 100 nM
18,N=C(c1ccc(NC(=O)[C@@H](NC(=S)Nc2ccc(Br)cc2F)c2ccccc2)cc1)N1CCCC1 [Example 17],≥ 500 nM

row,SMILES,IC50
1,N=C(c1ccc(NC(=O)[C@@H](NC(=S)Nc2ccc(Br)cc2OC(F)(F)F)c2ccccc2)cc1)N1CCCC1 [Example 18],≥ 500 nM
2,Cc1cc(Br)ccc1NC(=S)N[C@H](C(=O)Nc1ccc(C(=N)N2CCCC2)cc1)c1ccccc1 [Example 19],≥ 500 nM
3,N=C(c1ccc(NC(=O)[C@@H](NC(=S)Nc2ccc(Cl)cc2Cl)c2ccccc2)cc1)N1CCCC1 [Example 20],≥ 500 nM
4,"N=C(c1ccc(NC(=O)[C@@H](NC(=S)Nc2ccc(Br)c(Cl)c2)c2ccccc2)cc1)N1CCCC1 [Example 21, (S) N-[4-(pyrrolidinylimino)phenyl]-2-phenyl-2-(3-chloro-4-bromophenylaminothiocarbonylamino)-acetamide]",≥ 500 nM
5,N=C(c1ccc(NC(=O)[C@@H](NC(=S)Nc2ccc(Br)cc2C(F)(F)F)c2ccccc2)cc1)N1CCCC1 [Example 22],≥ 500 nM
6,N=C(c1ccc(NC(=O)[C@@H](NC(=S)Nc2c(Br)cc(Br)cc2Br)c2ccccc2)cc1)N1CCCC1 [Example 23],≥ 500 nM
7,"CC(C)C(NC(=S)Nc1ccc(Cl)cc1)C(=O)Nc1ccc(C2=NCCN2C)cc1 (stereo not drawn) [Example 24, N-[4-(1-methyl-4,5-dihydro-1H-imidazol-2-yl)phenyl]-2-isopropyl-2-(4-chlorophenylaminothiocarbonylamino]-acetamide]",≤ 100 nM
8,"O=C(Nc1ccc(N2CCOCC2=O)cc1)C(NC(=S)Nc1ccc(Cl)cc1)c1ccccc1 (stereo not drawn) [Example 25, N-[4-(3-oxo-morpholin-4-yl)phenyl]-2-phenyl-2-(4-chlorophenylaminothiocarbonylamino)-acetamide]",≤ 100 nM
9,CN1CCC(N2CCN(C(=O)[C@@H](NC(=S)Nc3ccc(Cl)cc3)c3ccccc3)CC2)CC1 [Example 26],≤ 100 nM
10,CN1CCC(N2CCN(C(=O)[C@H](NC(=S)Nc3ccc(Cl)cc3)c3ccccc3)CC2)CC1 [Example 27],≤ 100 nM
11,"Cc1cc2cc(NC(=S)NC(C(=O)Nc3ccc(-c4ccccc4S(N)(=O)=O)cc3)c3ccccc3)ccc2o1 (stereo not drawn) [Example 28, N-[4-(2-aminosulfonylphenyl)phenyl]-2-phenyl-2-[(2-methylbenzo[b]furan-5-yl)aminothiocarbonylamino]-acetamide]",≤ 100 nM
12,"NS(=O)(=O)c1ccccc1-c1ccc(NC(=O)C(NC(=S)Nc2ccc(Br)cc2)c2ccccc2)cc1 (stereo not drawn) [Example 29, N-[4-(2-aminosulfonylphenyl)phenyl]-2-phenyl-2-[(4-bromophenyl)aminothiocarbonylamino]-acetamide]",≤ 100 nM
13,"NS(=O)(=O)c1ccccc1-c1ccc(NC(=O)[C@@H](NC(=S)Nc2ccc(Br)cn2)c2ccccc2)cc1 [Example 30, (S) N-[4-(2-aminosulfonylphenyl)phenyl]-2-phenyl-2-(5-bromopyridin-2-ylaminothiocarbonylamino)-acetamide]",≤ 100 nM
14,"NS(=O)(=O)c1ccccc1-c1ccc(NC(=O)[C@H](NC(=S)Nc2ccc(Br)cn2)c2ccccc2)cc1 [Example 31, (R) N-[4-(2-aminosulfonylphenyl)phenyl]-2-phenyl-2-(5-bromopyridin-2-ylaminothiocarbonylamino)-acetamide]",100 to 500 nM
15,"O=C(Nc1ccc(-n2ccccc2=O)cc1)[C@@H](NC(=S)Nc1ccc(Cl)cc1)c1ccccc1 [Example 34, (2S) N-[4-(2-pyridon-1-yl)phenyl]-2-phenyl-2-(4-chlorophenylaminothiocarbonylamino)-acetamide]",≤ 100 nM
16,"O=C(Nc1ccc(-n2ccccc2=O)cc1)[C@H](NC(=S)Nc1ccc(Cl)cc1)c1ccccc1 [Example 35, (2R) N-[4-(2-pyridon-1-yl)phenyl]-2-phenyl-2-(4-chlorophenylaminothiocarbonylamino)-acetamide]",≤ 100 nM
17,"O=C(Nc1ccc(-n2ccccc2=O)cc1F)[C@H](NC(=S)Nc1ccc(Cl)cc1)c1ccccc1 [Example 36, (2R) N-[4-(2-pyridon-1-yl)-2-fluorophenyl]-2-phenyl-2-(4-chlorophenylaminothiocarbonylamino)-acetamide]",≤ 100 nM
18,"CN1CCC(C2CCN(C(=O)[C@H](NC(=S)Nc3ccc(Cl)cc3)c3ccccc3)CC2)CC1 [Example 37, (2R) 4-(1-methylpiperidin-4-yl)piperidin-1-yl-2-phenyl-2-(4-chlorophenylaminothiocarbonylamino)-acetamide]",≥ 500 nM
